A word on the IC50: it is the concentration at which inhibition is half-maximal.

Results on 1 compound are retold here after paper PMC8767786 (Nature structural & molecular biology, 2021).

The structures appear in SMILES notation.

This assay addresses T1, TRPM5 (Danio rerio, UniProt S5UH55).
T1 sequence (S5UH55 1-1165): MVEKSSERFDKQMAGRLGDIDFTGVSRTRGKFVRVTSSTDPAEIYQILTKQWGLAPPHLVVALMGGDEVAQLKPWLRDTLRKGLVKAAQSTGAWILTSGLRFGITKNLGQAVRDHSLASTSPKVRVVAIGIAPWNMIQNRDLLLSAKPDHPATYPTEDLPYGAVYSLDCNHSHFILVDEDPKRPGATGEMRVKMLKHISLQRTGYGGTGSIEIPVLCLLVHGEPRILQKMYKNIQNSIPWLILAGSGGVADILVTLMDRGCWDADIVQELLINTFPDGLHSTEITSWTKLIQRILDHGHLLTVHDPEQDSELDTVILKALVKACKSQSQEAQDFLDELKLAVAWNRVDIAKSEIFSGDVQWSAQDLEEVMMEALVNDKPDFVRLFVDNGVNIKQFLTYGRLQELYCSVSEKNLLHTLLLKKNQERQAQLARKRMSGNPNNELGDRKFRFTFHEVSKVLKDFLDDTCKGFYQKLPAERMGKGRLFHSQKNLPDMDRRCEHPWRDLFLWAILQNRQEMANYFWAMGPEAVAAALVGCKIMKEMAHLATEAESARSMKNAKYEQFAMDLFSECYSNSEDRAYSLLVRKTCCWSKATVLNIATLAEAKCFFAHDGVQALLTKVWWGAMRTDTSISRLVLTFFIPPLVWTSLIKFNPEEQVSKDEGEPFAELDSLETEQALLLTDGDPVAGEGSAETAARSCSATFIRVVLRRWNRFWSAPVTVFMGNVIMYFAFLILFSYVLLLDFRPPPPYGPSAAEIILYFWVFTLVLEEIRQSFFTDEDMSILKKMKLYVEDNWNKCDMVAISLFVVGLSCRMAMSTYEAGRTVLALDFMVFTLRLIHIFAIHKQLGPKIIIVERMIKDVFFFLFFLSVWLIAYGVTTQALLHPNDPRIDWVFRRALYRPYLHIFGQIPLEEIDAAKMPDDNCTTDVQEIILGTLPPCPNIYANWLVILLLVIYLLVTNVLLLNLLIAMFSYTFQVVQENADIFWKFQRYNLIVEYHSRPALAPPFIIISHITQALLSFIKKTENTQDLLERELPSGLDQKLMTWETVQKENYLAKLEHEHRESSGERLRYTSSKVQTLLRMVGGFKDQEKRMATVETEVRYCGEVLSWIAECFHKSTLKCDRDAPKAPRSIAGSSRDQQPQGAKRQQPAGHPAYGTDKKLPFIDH
Briefly: cryo-EM structure. It counts as cell-based.

In the case of `COc1ccc(C=NNC(=O)Cc2cccc3ccccc23)cc1OC` [NDNA, N’-(3,4-dimethoxybenzylidene)-2-(naphthalen-1-yl)acetohydrazide], the IC50 was roughly 2.4 nM.
